Molecules are shown by their SMILES.

Data set [1] concerns mouse ES cells. Description: MTT assay, viability of mouse ES cells. The format is cell-based. The note with it: 3 days. Here is the method: (§1) One thousand cells were seeded into each well of a 96-well plate and cultured for 3 days in medium (200 μL/well) supplemented with only DMSO at a final concentration of 0.1% or in medium (200 μL/well) supplemented with each dihydroorotate dehydrogenase (DHODH) inhibitor. The medium used was the appropriate culture solution for each cell as described above.
(§2) The concentration of each DHODH inhibitor added to the medium was a 2-fold dilution series starting from 200 μM.
(§3) As a background, a well containing medium only was prepared, and as a control, a well was also prepared in which medium containing Triton X-100 (final concentration 0.2%) was added to the cells.
(§4) Then, 5 μL of MTT (5 mg/ml, manufactured by Wako) was added to each well, and the cells were incubated at 37° C. for 2 to 3 hours. Then, the medium was replaced with 100 μL of DMSO to lyse the cells, and the absorbance of these cell lysates at a wavelength of 570 nm was measured with a microplate reader (manufactured by Bio-Rad, Benchmark model). In addition, based on the obtained absorbance, the cell viability was calculated by the following formula.
(§5) Cell viability (%)=(absorbance in wells with DHODH inhibitor-absorbance in background)/(absorbance in control-absorbance in background)×100.
In general terms: Tetrazolium assays rely on reduction of a dye to a coloured formazan, in cell work by metabolically active cells.

In data set [2] the test system is mouse iPS cells. The data set is described as follows: MTT assay, viability of mouse iPS cells. Conditions: 3 days. The format is cell-based. As to the method:
as §1, §2, §3, §4, §5

The subject of data set [3] is PA6: mouse bone marrow-derived stromal cells. The data set is described as follows: MTT assay, viability of PA6 cells. Conditions: 10 μM BRQ, 3 days. Format: cell-based. Here is the method: as §1, §2, §3, §4
(§6) Cell viability (%)=(absorbance in wells with DHODH inhibitor-absorbance in background)/(absorbance in control-absorbance in background)×100. […]

A further data set relates to C2C12: mouse myoblasts. The data set is described as follows: MTT assay, viability of C2C12 cells. The format is cell-based. The note with it: 10 μM BRQ, 3 days. Here is the method:
as §1, §2, §3, §4, §6

For data set [4], the system named is mouse ES cells. The data set is described as follows: Cell proliferation and cell death (BrdU uptake, Ki67, Casp3 immunostaining), ES cells. The format is cell-based. The note with it: BRQ 2 days. Here is the method: The cells were fixed and immunostained as described in Kondo et al., Genes Dev. 2004, Vol. 18, Issue 23, pp. 2963-72. […] For the culture of mNSCs, PDL+fibronectin-coated ones were used (see Johe KK et al., Genes Dev. 1996, Vol. 10, Issue 24, pp. 3129 to 3140). For the culture of ES cells and iPS cells, gelatin-coated ones were used.
For immunostaining, the cells were first washed once with PBS, then fixed by adding 4% paraformaldehyde and incubating for 10 minutes at room temperature. The cells were replaced with PBS containing 0.3% Triton X100 and incubated for 5 minutes at room temperature, then replaced with PBS containing 0.3% Triton X100 and 10% FCS (blocking solution) and incubated for 30 minutes at room temperature. The solution was replaced with primary antibody solution diluted in blocking solution and incubated for 2 hours at room temperature. After washing three times with PBS, secondary antibody and DAPI solution diluted with blocking solution were added and incubated at room temperature for 2 hours. After washing three times with PBS, the cells were sealed with anti-fading agent (manufactured by DAKO, code number: 53023) and observed under a microscope. […] In addition, fluorescence images were acquired with an Axiolmager M1 microscope (manufactured by Carl Zeiss). […]

Data set [5] concerns mouse ES cells. The data set is described as follows: Immunostaining of pluripotent stem cell markers (Sox2, Nanog, Oct4), ES cells. Format: cell-based. As to the method:
(§7) The cells were fixed and immunostained as described in Kondo et al., Genes Dev. […] For the culture of ES cells and iPS cells, gelatin-coated ones were used.
(§8) For immunostaining, the cells were first washed once with PBS, then fixed by adding 4% paraformaldehyde and incubating for 10 minutes at room temperature. The cells were replaced with PBS containing 0.3% Triton X100 and incubated for 5 minutes at room temperature, then replaced with PBS containing 0.3% Triton X100 and 10% FCS (blocking solution) and incubated for 30 minutes at room temperature. The solution was replaced with primary antibody solution diluted in blocking solution and incubated for 2 hours at room temperature. After washing three times with PBS, secondary antibody and DAPI solution diluted with blocking solution were added and incubated at room temperature for 2 hours. […] Note that the cell nuclei were visualized by contrast staining with DAPI solution (1 μg/mL, manufactured by Dojindo, product code: D523). In addition, fluorescence images were acquired with an Axiolmager M1 microscope (manufactured by Carl Zeiss).
(§9) LMB is a specific inhibitor of CRM1, also known as Exportin 1.

Data set [6] has as its system mouse iPS cells. Description: Immunostaining of pluripotent stem cell markers (Sox2, Nanog, Oct4), iPS cells. The format is cell-based. Here is the method: as §7, §8, §9
In data set [7] the test system is mouse ES cells. The data set is described as follows: Quantitative RT-PCR of Sox2, Oct4, Nanog, ES cells. Format: cell-based. The note with it: 10 μM BRQ, 2 days. Here is the method: First, total RNA was prepared from cells using the RNeasy kit (manufactured by Qiagen), and cDNA was synthesized using the Transcriptor First Strand cDNA Synthesis Kit (manufactured by Roche Applied Science).
Then, the cDNA was used as a template, and Thunderbird Cyber qPCR Mix (manufactured by TOYOBO) and Step One Plus (manufactured by Thermo Fisher Scientific) were used to perform real-time PCR. The reaction conditions were set at 95° C. for 15 seconds and 60° C. for 30 seconds for 40 cycles, and the oligonucleotide primers shown below were used to amplify each target gene.
Note that the expression level of each target gene detected in this way was normalized by the relative quantification method (delta delta Ct method) based on the expression level of 18S ribosomal RNA.

In data set [8] the test system is mouse ES cells. Description: Teratoma formation from pretreated ES cells in NOD/SCID mice. Conditions: ES cells pretreated 2 days with 10 μM BRQ, subcutaneous in NOD/SCID mice, 4 weeks. The format is in vivo. As to the method:
The viable cells (1×10^6) were suspended in 50 μl of Matrigel (manufactured by BD Biosciences) and injected subcutaneously into the buttocks of 5-8-week-old NOD/SCID mice anesthetized with 10% pentobarbital. Four weeks after the injection, the mice were sacrificed to death, and the tumors were removed and photographed for their size measurement according to the method described in Tsukamoto Y, et al., Stem Cells. 2016; 34(8): 2016-2025. Based on the measurement values obtained, the volume of the tumors was calculated by the following formula.
Volume of tumor (cm^3)=major diameterxminor diameterxminor diameter×½.
Then, 4 weeks after transplantation, the tumors were removed and observed.

Setting [9] is: 2-fold dilution series starting from 200 μM.
[10] abbreviates: ES cells, 2 days, BRQ 10 μM (ZVAD 100 nM where added).
The mark [11] stands for this setting: mouse ES cells, 10 μM BRQ, 24 hours.
The mark [12] stands for this setting: iPS cells, 2 days, BRQ 10 μM (ZVAD 100 nM where added).
Setting [13] is: mouse iPS cells, 10 μM BRQ, 24 hours.

`Cc1c(-c2ccc(-c3ccccc3F)cc2)nc2ccc(F)cc2c1C(=O)O` [BRQ, 6-fluoro-2-(2′-fluoro-1,1′-biphenyl-4-yl)-3-methyl-4-quinoline-sodium carboxylate]: the “cytotoxic activity (viability, MTT assay)” value in the data set on mouse ES cells [1] (10 μM BRQ) is “significant cytotoxic activity”; in the data set with mouse ES cells [1] (setting [9]), “significant cytotoxic activity”; with mouse iPS cells [2] (10 μM BRQ), “significant cytotoxic activity”; in the data set on mouse iPS cells [2] (setting [9]) it was “significant cytotoxic activity”; in [3], “no significant cytotoxic activity”; with C2C12: mouse myoblasts it was “no significant cytotoxic activity”. Moreover, the “CASP3 activation (Casp3 immunostaining)” value in the data set with mouse ES cells [4] is on record as “strongly activated”. Besides, the “cell proliferation (BrdU uptake assay)” value with mouse ES cells [4] was “reduced the proliferation”. Moreover, the Nanog-positive cells with mouse ES cells [5] (setting [10]) is 6%; in the data set on mouse iPS cells [6] (setting [12]) it was 0%. For the same molecule, the Oct4-positive cells in the data set on mouse ES cells [5] (setting [10]) came to 2%; in the data set with mouse iPS cells [6] (setting [12]), 0%. The “cells in which expression of Sox2 was not observed” value with mouse ES cells [5] (setting [11]) and in the data set with mouse iPS cells [6] (setting [13]) was “about 30%” in each case. Further, the “inhibition of cell proliferation or cell death” value in the data set with mouse ES cells [5] (setting [11]) and in the data set with mouse iPS cells [6] (setting [13]) was “inhibition of cell proliferation or cell death was already observed” throughout. The “subcellular localization of Nanog” value in the data set with mouse ES cells [5] (mouse ES cells, 10 μM BRQ, 2 days) is listed as “distributed in the cytoplasm”; in the data set on mouse iPS cells [6] (mouse iPS cells, 10 μM BRQ, 2 days), “distributed in the cytoplasm”. The “expression levels of marker genes (Sox2, Oct4, Nanog)” value with mouse ES cells [7] was “generally decreased”. Further, the “tumor formation from pretreated cells” value in the data set with mouse ES cells [8] is “did not proliferate”.

These data come from patent US20220364065A1, “COMPOSITION FOR REMOVING PLURIPOTENT STEM CELLS AND METHOD OF REMOVING PLURIPOTENT STEM CELLS” (NATIONAL UNIVERSITY CORPORATION HOKKAIDO UNIVERSITY, priority 2018, published 2022).
